# Reference: ChEMBL document CHEMBL3885881, “DrugMatrix”
# Species: Rattus norvegicus
# Assay: DrugMatrix - Regimen: Daily Repeat
# Type: toxicity, organism-based, Sprague-Dawley
# Design: regimen Daily Repeat, gender Male, age 6-8 weeks
# Conditions: in vivo, po, route oral GAVAGE, vehicle .5 % CMC; for ABSOLUTE BASOPHIL / ABSOLUTE EOSINOPHIL / ABSOLUTE LYMPHOCYTE / ABSOLUTE MONOCYTE / ABSOLUTE SEGMENTED NEUTROPHIL / BASOPHIL / EOSINOPHIL / ERYTHROCYTE COUNT / HEMATOCRIT / HEMOGLOBIN / LEUKOCYTE COUNT / LYMPHOCYTE / MEAN CORPUSCULAR HEMOGLOBIN / MEAN CORPUSCULAR HEMOGLOBIN CONCENTRATION / MEAN CORPUSCULAR VOLUME / MONOCYTE / NEUTROPHIL / NUCLEATED RED BLOOD CELLS / PLATELET COUNT: tissue Blood; for ALANINE AMINOTRANSFERASE / ALBUMIN / ASPARTATE AMINOTRANSFERASE / BLOOD UREA NITROGEN / CARBON DIOXIDE / CHLORIDE / CHOLESTEROL / CREATINE PHOSPHOKINASE / CREATININE / GLUCOSE / LACTATE DEHYDROGENASE / LIPASE / POTASSIUM / SODIUM / TOTAL BILIRUBIN / TOTAL PROTEIN / URIC ACID: tissue Plasma
# [1] = 47 mg/kg, 72 h, dose level Low, time 3 day
# [2] = 47 mg/kg, 120 h, dose level Low, time 5 day
# [3] = 500 mg/kg, 72 h, dose level High, time 3 day
# [4] = 500 mg/kg, 120 h, dose level High, time 5 day
smiles,measurement,setting,value
OCCOCCN1CCN(C2=Nc3ccccc3Sc3ccccc32)CC1 [QUETIAPINE],ABSOLUTE BASOPHIL,[1],0 CELLS/uL
same,ABSOLUTE EOSINOPHIL,[1],0 CELLS/uL
same,ABSOLUTE LYMPHOCYTE,[1],7521.33 CELLS/uL
same,ABSOLUTE MONOCYTE,[1],22.33 CELLS/uL
same,ABSOLUTE SEGMENTED NEUTROPHIL,[1],789.67 CELLS/uL
same,BASOPHIL,[1],0%
same,EOSINOPHIL,[1],0%
same,ERYTHROCYTE COUNT,[1],5.57 x10E6/uL
same,HEMATOCRIT,[1],34.3%
same,HEMOGLOBIN,[1],13.87 G/DL
same,LEUKOCYTE COUNT,[1],8.33 x10E3/uL
same,LYMPHOCYTE,[1],90.33%
same,MEAN CORPUSCULAR HEMOGLOBIN,[1],24.93 pg
same,MEAN CORPUSCULAR HEMOGLOBIN CONCENTRATION,[1],40.43 G/DL
same,MEAN CORPUSCULAR VOLUME,[1],61.7 fL
same,MONOCYTE,[1],0.33%
same,NEUTROPHIL,[1],9.33%
same,NUCLEATED RED BLOOD CELLS,[1],0.33 /100WBC
same,PLATELET COUNT,[1],1115.67 x10E3/uL
same,ALANINE AMINOTRANSFERASE,[1],48.33 u/L
same,ALBUMIN,[1],4.63 G/DL
same,ASPARTATE AMINOTRANSFERASE,[1],64.67 u/L
same,BLOOD UREA NITROGEN,[1],15.33 mg/dL
same,CARBON DIOXIDE,[1],31 mmol/L
same,CHLORIDE,[1],101 MEQ/L
same,CHOLESTEROL,[1],78.33 mg/dL
same,CREATINE PHOSPHOKINASE,[1],126.33 u/L
same,CREATININE,[1],0.17 mg/dL
same,GLUCOSE,[1],143.33 mg/dL
same,LACTATE DEHYDROGENASE,[1],116.33 u/L
same,LIPASE,[1],12 u/L
same,POTASSIUM,[1],6.23 MEQ/L
same,SODIUM,[1],148.9 MEQ/L
same,TOTAL BILIRUBIN,[1],0.2 mg/dL
same,TOTAL PROTEIN,[1],6.03 G/DL
same,URIC ACID,[1],1.03 mg/dL
same,ABSOLUTE BASOPHIL,[2],0 CELLS/uL
same,ABSOLUTE EOSINOPHIL,[2],0 CELLS/uL
same,ABSOLUTE LYMPHOCYTE,[2],13853.67 CELLS/uL
same,ABSOLUTE MONOCYTE,[2],281 CELLS/uL
same,ABSOLUTE SEGMENTED NEUTROPHIL,[2],1032 CELLS/uL
same,BASOPHIL,[2],0%
same,EOSINOPHIL,[2],0%
same,ERYTHROCYTE COUNT,[2],6.08 x10E6/uL
same,HEMATOCRIT,[2],38.03%
same,HEMOGLOBIN,[2],15.07 G/DL
same,LEUKOCYTE COUNT,[2],15.17 x10E3/uL
same,LYMPHOCYTE,[2],91.33%
same,MEAN CORPUSCULAR HEMOGLOBIN,[2],24.83 pg
same,MEAN CORPUSCULAR HEMOGLOBIN CONCENTRATION,[2],39.6 G/DL
same,MEAN CORPUSCULAR VOLUME,[2],62.6 fL
same,MONOCYTE,[2],2%
same,NEUTROPHIL,[2],6.67%
same,NUCLEATED RED BLOOD CELLS,[2],0 /100WBC
same,PLATELET COUNT,[2],1335.33 x10E3/uL
same,ALANINE AMINOTRANSFERASE,[2],39.33 u/L
same,ALBUMIN,[2],4.63 G/DL
same,ASPARTATE AMINOTRANSFERASE,[2],90.67 u/L
same,BLOOD UREA NITROGEN,[2],20 mg/dL
same,CARBON DIOXIDE,[2],25 mmol/L
same,CHLORIDE,[2],96.67 MEQ/L
same,CHOLESTEROL,[2],61.33 mg/dL
same,CREATINE PHOSPHOKINASE,[2],403.67 u/L
same,CREATININE,[2],0.22 mg/dL
same,GLUCOSE,[2],148 mg/dL
same,LACTATE DEHYDROGENASE,[2],287 u/L
same,LIPASE,[2],9.33 u/L
same,POTASSIUM,[2],7.45 MEQ/L
same,SODIUM,[2],142.07 MEQ/L
same,TOTAL BILIRUBIN,[2],0.13 mg/dL
same,TOTAL PROTEIN,[2],6.67 G/DL
same,URIC ACID,[2],2.17 mg/dL
same,ABSOLUTE BASOPHIL,[3],0 CELLS/uL
same,ABSOLUTE EOSINOPHIL,[3],0 CELLS/uL
same,ABSOLUTE LYMPHOCYTE,[3],9655.67 CELLS/uL
same,ABSOLUTE MONOCYTE,[3],233.67 CELLS/uL
same,ABSOLUTE SEGMENTED NEUTROPHIL,[3],577.33 CELLS/uL
same,BASOPHIL,[3],0%
same,EOSINOPHIL,[3],0%
same,ERYTHROCYTE COUNT,[3],5.61 x10E6/uL
same,HEMATOCRIT,[3],34.93%
same,HEMOGLOBIN,[3],14.17 G/DL
same,LEUKOCYTE COUNT,[3],10.47 x10E3/uL
same,LYMPHOCYTE,[3],92.67%
same,MEAN CORPUSCULAR HEMOGLOBIN,[3],25.27 pg
same,MEAN CORPUSCULAR HEMOGLOBIN CONCENTRATION,[3],40.53 G/DL
same,MEAN CORPUSCULAR VOLUME,[3],62.27 fL
same,MONOCYTE,[3],2%
same,NEUTROPHIL,[3],5.33%
same,NUCLEATED RED BLOOD CELLS,[3],0 /100WBC
same,PLATELET COUNT,[3],1122.67 x10E3/uL
same,ALANINE AMINOTRANSFERASE,[3],50.33 u/L
same,ALBUMIN,[3],4.3 G/DL
same,ASPARTATE AMINOTRANSFERASE,[3],75 u/L
same,BLOOD UREA NITROGEN,[3],16.67 mg/dL
same,CARBON DIOXIDE,[3],26.33 mmol/L
same,CHOLESTEROL,[3],46.67 mg/dL
same,CREATINE PHOSPHOKINASE,[3],448 u/L
same,CREATININE,[3],0.21 mg/dL
same,GLUCOSE,[3],138 mg/dL
same,LACTATE DEHYDROGENASE,[3],232.33 u/L
same,LIPASE,[3],8 u/L
same,POTASSIUM,[3],6.14 MEQ/L
same,SODIUM,[3],143.73 MEQ/L
same,TOTAL BILIRUBIN,[3],0.23 mg/dL
same,TOTAL PROTEIN,[3],5.57 G/DL
same,URIC ACID,[3],1.33 mg/dL
same,ABSOLUTE BASOPHIL,[4],0 CELLS/uL
same,ABSOLUTE EOSINOPHIL,[4],0 CELLS/uL
same,ABSOLUTE LYMPHOCYTE,[4],15536 CELLS/uL
same,ABSOLUTE MONOCYTE,[4],318.67 CELLS/uL
same,ABSOLUTE SEGMENTED NEUTROPHIL,[4],1612 CELLS/uL
same,BASOPHIL,[4],0%
same,EOSINOPHIL,[4],0%
same,ERYTHROCYTE COUNT,[4],6.23 x10E6/uL
same,HEMATOCRIT,[4],37.83%
same,HEMOGLOBIN,[4],15.17 G/DL
same,LEUKOCYTE COUNT,[4],17.47 x10E3/uL
same,LYMPHOCYTE,[4],89%
same,MEAN CORPUSCULAR HEMOGLOBIN,[4],24.33 pg
same,MEAN CORPUSCULAR HEMOGLOBIN CONCENTRATION,[4],40.1 G/DL
same,MEAN CORPUSCULAR VOLUME,[4],60.67 fL
same,MONOCYTE,[4],1.67%
same,NEUTROPHIL,[4],9.33%
same,NUCLEATED RED BLOOD CELLS,[4],0 /100WBC
same,PLATELET COUNT,[4],1152.33 x10E3/uL
same,ALANINE AMINOTRANSFERASE,[4],50.33 u/L
same,ALBUMIN,[4],4.37 G/DL
same,ASPARTATE AMINOTRANSFERASE,[4],71 u/L
same,BLOOD UREA NITROGEN,[4],20 mg/dL
same,CARBON DIOXIDE,[4],25 mmol/L
same,CHLORIDE,[4],103 MEQ/L
same,CHOLESTEROL,[4],56.67 mg/dL
same,CREATINE PHOSPHOKINASE,[4],184.33 u/L
same,CREATININE,[4],0.29 mg/dL
same,GLUCOSE,[4],154 mg/dL
same,LACTATE DEHYDROGENASE,[4],150.67 u/L
same,LIPASE,[4],8.67 u/L
same,POTASSIUM,[4],6.89 MEQ/L
same,SODIUM,[4],145 MEQ/L
same,TOTAL BILIRUBIN,[4],0.2 mg/dL
same,TOTAL PROTEIN,[4],6.13 G/DL
same,URIC ACID,[4],2.13 mg/dL
